Source: patent US6797721B2, “Phorboxazole derivatives for treating cancer” (Parker Hughes Institute, priority 1999, dated 2004)
Where two headings read alike, the source gives them in different places.

How the values were obtained:
[1] = system: NALM-6 human B-lineage acute lymphoblastic leukemia cells; assay: MTT cytotoxicity assay, NALM-6; assay type: cell-based
Experimental: (§1) The cytotoxicity assay of synthetic Phorboxazole A and various derivative compounds against human tumor cells was performed using the MTT (3-[4,5-dimethylthiazol-2-yl]-2,5-diphenyl tetrazolium bromide) assay (Boehringer Mannheim Corp., Indianapolis, Ind.). Briefly, exponentially growing brain tumor cells were seeded into a 96-well plate at a density of 2.5×10^4 cells/well and incubated for 36 hours at 37° C. prior to drug exposure. On the day of treatment, culture medium was carefully aspirated from the wells and replaced with fresh medium containing the various phorboxazole A derivative compounds as well as the tyrosine kinase inhibitory isoflavone genistein (GEN) at concentrations ranging from 0.1 to 250 μM. Triplicate wells were used for each treatment.
(§2) Human glioblastoma cells U373 (brain cancer), human B-lineage acute lymphoblastic leukemia cells NALM-6, and human breast cancer cells BT-20 were obtained from American Type Culture Collection (Rockville, Md.) and maintained as a continuous cell line in Dulbecco's modified Eagles's medium supplemented with 10% fetal bovine serum and antibiotics.
(§3) The cells were incubated with the various compounds for 24-36 hours at 37° C. in a humidified 5% CO2 atmosphere. To each well, 10 μl of MTT (0.5 mg/ml final concentration) was added and the plates were incubated at 37° C. for 4 hours to allow MTT to form formazan crystals by reacting with metabolically active cells. The fonnazan crystals were solubilized overnight at 37° C. in a solution containing 10% SDS in 0.01 M HCl. The absorbance of each well was measured in a microplate reader (Labsystems) at 540 nm and a reference wavelength of 690 nm. To translate the OD540 values into the number of live cells in each well, the OD540 values were compared to those on standard OD540-versus-cell number curves generated for each cell line. The percent survival was calculated using the formula: [formula]
(§4) The IC50 values were calculated by non-linear regression analysis.

[2] = system: BT-20 human breast cancer cells; assay: MTT cytotoxicity assay, BT-20; assay type: cell-based
Experimental: as §1, §2, §3, §4

[3] = system: U373 human glioblastoma cells; assay: MTT cytotoxicity assay, U373; assay type: cell-based; settings: U373 MG, read-out: IC50 [MTT]
Experimental: as §1, §2, §3, §4

[4] = system: U373 glioblastoma cells; assay: In vitro adhesion assay to ECM proteins, U373; assay type: cell-based, human; settings: laminin-, fibronectin-, and collagen-coated plates, 0.1 μM to 1 μM for 24 hours
Experimental: (§5) Human brain tumor cell lines U-373 MG and breast cancer cell lines BT-20 and MDA-MB-231 were obtained from American Type Culture Collection (ATCC, Rockville, Md.) and maintained in liquid culture using DMEM supplemented with 10% fetal bovine serum and antibiotics. Fibroblast conditioned medium was used as a source of chemoattractant in vitro invasion assays. Conditioned medium was prepared as described in the literature (Albini et.al., 1987, Cancer Res., 47:3239-3245).
(§6) In vitro adhesion assays were performed to (a) study the baseline adhesive properties of various breast cancer and glioblastoma cell lines and (b) evaluate the effects of phorboxazole A derivatives on the adhesive properties of breast cancer and glioblastoma cells. The plates for the adhesion assays were precoated with the extracellular matrix proteins laminin, fibronectin, or type IV collagen (each at a final concentration of 1 μg/ml in PBS) overnight at 4° C. and dried. On the day of the experiment, the wells were rehydrated and blocked with 10% bovine serum albumin in PBS for 1 hour at room temperature and used for the adhesion assays, as described below.
(§7) The effects of synthetic phorboxazole A and specific derivatives on adhesion of breast cancer and glioblastoma cells was studied. Exponentially growing cells in DMEM were incubated with phorboxazole compounds or genistein as a control at concentrations ranging from 0.1 μM to 1 μM for 24 hours in a humidified 5% CO2 atmosphere. DMSO (0.1%) was included as a vehicle control. After treatment, cells were detached from the flasks with 0.05% trypsin (Life Technologies) resuspended in DMEM, incubated at 37° C. for 2 hours to allow them to recover from the trypsinization stress and examined for their ability to adhere to plates precoated with ECM proteins.
(§8) In adhesion assays, cells were centrifuged, washed twice with serum-free DMEM, counted and resuspended in serum-free DMEM to a final concentration of 2.5×10^5 cells/ml. […] The adherent fraction was quantitated using MTT (3-[4,5-dimethylthiazol-2-yl]-2,5-diphenyltetrazolium bromide) assays. […] The absorbance of each well was measured in a microplate reader (Labsystems) at 540 nm and a reference wavelength of 690 nm.
(§9) To translate the OD540 values into the number of cells in each well, the OD540 values were compared to those on standard OD540-versus-cell number curves generated for each cell line. The adherent fractions of cells treated with phorboxazole A derivatives were compared to those of DMSO-treated control cells and the percent inhibition of adhesion was determined using the formula: [formula]
(§10) Each treatment condition was evaluated in duplicate in 3 independent experiments. The IC50 values were calculated by non-linear regression analysis. […]

[5] = system: BT-20 breast cancer cells; assay: In vitro adhesion assay to ECM proteins, BT-20; assay type: cell-based, human; settings: laminin-, fibronectin-, and collagen-coated plates, 0.1 μM to 1 μM for 24 hours
Experimental: as §5, §6, §7, §8, §9, §10

[6] = system: MDA-MB-231 breast cancer cells; assay: In vitro adhesion assay to ECM proteins, MDA-MB-231; assay type: cell-based, human; settings: laminin-, fibronectin-, and collagen-coated plates, 0.1 μM to 1 μM for 24 hours
Experimental: as §5, §6, §7, §8, §9, §10

[7] = system: U373 glioblastoma cells; assay: Matrigel invasion assay (Boyden chambers); assay type: cell-based; settings: Homo sapiens, U373 MG, read-out: IC50, inhibition of glioblastoma cell invasion through Matrigel
Experimental: The in vitro invasiveness of human brain tumor cell lines U-373 MG and breast cancer cell lines BT-20 and MDA-MB-231 cells was assayed using a previously published method which employs Matrigel™-coated Costar 24-well transwell cell culture chambers (“Boyden chambers”) with 8.0-μm-pore polycarbonate filter inserts (Albini,et.al, 1987, Cancer Res., 47:3239-3245). The chamber filters were coated with 50 μg/ml of Matrigel™ matrix, incubated overnight at room temperature under a laminar flow hood and stored at 4° C. Matrigel™ matrix is made up of several components of the extracellular matrix (ECM), including collagen, laminin and proteo-glycans. The cancer cells were incubated with 500, 250, 125, 62.5, and 31.2 nM concentrations of the synthetic Phorboxazole compounds for 72 hours.
On the day of the experiment, the coated inserts were rehydrated with 0.5 ml serum-free DMEM containing 0.1% bovine serum albumin for 1-2 hours. The treated cells were trypsinized, washed twice with serum-free DMEM containing BSA, counted and resuspended at 1×10^5 cells/ml. A 0.5 ml cell suspension containing 5×10^4 cells in a serum-free DMEM was added to the Matrigel™-coated and rehydrated filter inserts. A volume of 750 μl of NIH fibroblast conditioned medium was placed as a chemoattractant in 24-well plates and the inserts were placed in wells and incubated at 37° C. for 48 hours.
The invasive cells that migrated to the lower side of the filter were fixed, stained with Hema-3 solutions and counted under microscope. Five to 10 random fields per filter were counted to determine the mean (±SE) values for the invasive fraction. The invasive fractions of cells treated with phorboxazole A derivatives were compared to those of DMSO treated control cells and the percent inhibition of invasiveness was determined using the formula: [formula]
Each treatment condition was evaluated in duplicate in 3 independent experiments. IC50 values were calculated by non-linear regression analysis using Graphpad Prisin Software Version 2.0 (Graphpad Software Inc., San Diego, Calif.).

[8] = NALM-6 (leukemia, ALL), 24-36 hours, read-out: IC50 [MTT]
[9] = BT-20 (breast cancer), 24-36 hours, read-out: IC50 [MTT]
[10] = U373 (brain tumor, glioblastoma), 24-36 hours

SMILES	IC50 ([1]; NALM-6, read-out: IC50 [MTT]) [nM]	IC50 ([2]; BT-20, read-out: IC50 [MTT]) [nM]	IC50 [3] [nM]	IC50 [1, 8] [nM]	IC50 [2, 9] [nM]	IC50 [3, 10] [nM]	Inhibition of cell adhesion [4]	Inhibition of cell adhesion [5]	Inhibition of cell adhesion [6]	IC50 [7] [nM]	IC50 ([7]; cells treated 72 hours, invasion 48 hours) [nM]
C=C1C[C@@H]2C[C@@H]3C[C@@H](O)C[C@@H](O3)c3coc(n3)/C=C/C[C@H]3O[C@@H](/C(C)=C/c4coc(C)n4)[C@H](C)[C@@H](OC(=O)/C=C\C[C@@H](C1)O2)[C@H]3C [Compound 2, 32-Methyl-phorboxolide A (C1-C32 analog)]	> 2000	> 2000	> 2000	–	–	–	–	–	–	–	–
C=C1C[C@@H]2C[C@@H]3C[C@@H](O)C[C@@H](O3)c3coc(n3)/C=C/C[C@H]3O[C@@H](/C(C)=C/c4coc(C[C@]5(O)C[C@H](OC)C[C@H](CO)O5)n4)[C@H](C)[C@@H](OC(=O)/C=C\C[C@@H](C1)O2)[C@H]3C [Compound 3, C1-C38 Phorboxazole A]	–	–	–	> 2000	> 2000	> 2000	–	–	–	–	–
COC(=O)/C=C/C[C@H]1O[C@@H](/C(C)=C/c2coc(C[C@]3(O)C[C@H](OC)C[C@H]([C@H](O)/C=C(C)/C=C/[C@@H](C/C=C/Br)OC)O3)n2)[C@H](C)[C@@H](OC(C)=O)[C@H]1C [Compound 4, 24-O-Acetyl-18-methyl-phorboxylate (C18-C46 analog)]	> 2000	> 2000	> 2000	–	–	–	active	active	active	152	–
COC(=O)C[C@]1(O)C[C@H](OC)C[C@H]([C@H](O)/C=C(C)/C=C/[C@@H](C/C=C/Br)OC)O1 [Compound 5, 31-Methyl-phorboxylate (C31-C46 analog)]	> 2000	> 2000	> 2000	–	–	–	active	active	active	422	–
C=C1C[C@@H]2C[C@@H]3C[C@@H](O)C[C@@H](O3)c3coc(n3)/C=C/C[C@H]3O[C@@H](/C(C)=C/C(CO)NC(=O)C[C@]4(O)C[C@H](OC)C[C@H]([C@H](O)/C=C(C)/C=C/[C@@H](C/C=C/Br)OC)O4)[C@H](C)[C@@H](OC(=O)/C=C\C[C@@H](C1)O2)[C@H]3C (stereo partly drawn) [Compound 6, 29-Phorboxamide A (hydrated analog)]	–	–	–	> 2000	> 2000	> 2000	active	active	active	–	< 125
C#CC[C@H](/C=C/C(C)=C/[C@@H](O)[C@H]1C[C@@H](OC)C[C@](Cc2nc(/C=C(\C)[C@@H]3O[C@@H]4C/C=C/c5nc(co5)[C@H]5C[C@H](O)C[C@@H](C[C@H]6CC(=C)C[C@H](C/C=C\C(=O)O[C@@H]([C@H]4C)[C@H]3C)O6)O5)co2)(OC)O1)OC [Compound 7, 45,46-Dehydrobromo-33-O-methyl-Phorboxazole A]	–	–	–	> 2000	> 2000	> 2000	–	–	–	–	–
C=C1C[C@@H]2C[C@@H]3C[C@@H](O)C[C@@H](O3)c3coc(n3)/C=C/C[C@H]3O[C@@H](/C(C)=C/c4coc(C[C@]5(O)C[C@H](OC)C[C@H]([C@H](O)/C=C(C)/C=C/[C@@H](C/C=C/Br)OC)O5)n4)[C@H](C)[C@@H](OC(=O)CCC[C@@H](C1)O2)[C@H]3C [Compound 10, 2,3-Dihydrophorboxazole A]	–	–	–	> 2000	> 2000	> 2000	–	–	–	–	–
